≈ marks a conversion by molar mass, not a printed value.
What was measured:
A549 cells [1] = format: in vitro ADME, human
Protocol: Cells were treated as in Example 51 except that at the end of 72 hour exposure to test agent, the cells were frozen (−70° C.) and stored for subsequent evaluation by LC/MS.

[2] = system: A549 cells vs HUVEC cells; assay: A549/HUVEC selectivity; format: cell-based, human; conditions: ratio of IC50 values
[3] = Aqueous stability of carbamoylfumagillol in buffer; format: physicochemical; conditions: for Natural Rate Constant: 37° C., 5 μM
Protocol: At the appropriate time points, a 50 μL sample was withdrawn and diluted with three volumes of methanol containing propranolol as an internal standard (one solution was made for the entire study). The concentration of carbamoylfumagillol in the solution was analyzed by LC/MS/MS over seven days.

A549 cells [4] = assay: A549 human non-small cell lung carcinoma cell viability assay (CellTiter-Glo); format: cell-based; conditions: small molecules, 72 hours
Protocol: (§1) Test compounds, small molecules or polymer conjugates, were dissolved in dimethyl sulfoxide to a stock concentration of 5 mg/mL. The test agents were then diluted to an intermediate concentration at 200 μg/mL in 10% DMSO. Further dilutions were completed serially 3-fold in 10% DMSO to produce 12 decreasing concentrations for in-vitro analysis. To achieve the target concentrations of the in-vitro assays, 1 μL of the intermediate drug preparation was delivered to the cells (seeded in a volume of 50 μL). The final DMSO concentration for the tests was 0.2% for all doses of test agent.
Cells were exposed to twelve increasing concentrations of formulated test agent from 2×10^−6 to 4.0 μg/mL for 72 hours. Following 72 hour exposure, 25 μL it of CellTiter-Glo® Reagent was added to each well. The plates were incubated for 60 minutes at 37° C. in a humidified incubator. After incubation, luminescence was recorded using the Molecular Devices AnalystGT multi-mode reader.
Data are expressed as the percent cell growth of the untreated (vehicle) control calculated from the luminescence signals. The surviving fraction of cells is determined by dividing the mean luminescence values of the test agents by the mean luminescence values of untreated control. […]

HUVEC cells = assay: Human umbilical vein epithelial cell viability assay (CellTiter-Glo); format: cell-based; conditions: small molecules, 72 hours
Protocol: as §1
(§2) Data are expressed as the percent cell growth of the untreated (vehicle) control calculated from the luminescence signals. The surviving fraction of cells is determined by dividing the mean luminescence values of the test agents by the mean luminescence values of untreated control. The inhibitory concentration value for the test agent(s) and control were estimated using Prism 5 software (GraphPad Software, Inc.) by curve-fitting the data using the non-linear regression analysis.
The Human umbilical vein epithelial cells (HUVEC) were obtained from Lonza (Basel, Switzerland). […]
HUVEC cells were seeded at 1000 cells per well 24 hours prior to test agent exposure in a volume of 50 μL. […] After incubation, luminescence was recorded using the Molecular Devices AnalystGT multi-mode reader.

HCT-116 cells = assay: HCT-116 human colon tumor cell viability assay (CellTiter-Glo); format: cell-based; conditions: small molecules, 72 hours, read-out: HCT116 IC50 Average
Protocol: as §1, §2
The human tumor cell lines A549 and HCT-116 were obtained from American Type Culture Collection (Manassas, Va.). […]
Cells were exposed to twelve increasing concentrations of formulated test agent from 2.3×10^−6 to 4.02 μg/mL for 72 hours. […] After incubation, luminescence was recorded using the Molecular Devices AnalystGT multi-mode reader.

[5] = In vivo pharmacokinetics of polymer conjugate; design: species or system Sprague-Dawley rats; conditions: SDX-7539 single bolus IV 30 mg/kg, rat plasma
Protocol: FIG. 6 is a graph showing the plasma concentration of the active metabolite, SDX-7539, as a function of time in Sprague-Dawley rats, to which either the polymer conjugate SDX-7320 (single bolus, intravenous injection, 200 mg/kg) or the small molecule SDX-7539 (single bolus, intravenous injection, 30 mg/kg) has been administered.
The polymer conjugate, SDX-7320, or the in vivo release product, SDX-7539 were administered to Sprague-Dawley rats (N=3). Blood was collected over 48 hours after dosing to determine the plasma concentration of SDX-7539 by LC-MS/MS. The LLOQ for SDX-7539 was 2.5 nM. The terminal elimination half-life for SDX-7539 was estimated by fitting a linear regression to the ln [SDX-7539] versus time data. […] Cmax for the polymer is about 2% of the value for the small molecule.

## poly[HPMA-co-MA-GFLG-N-(6-aminohexyl)carbamoylfumagillol]
A549 cells [1]
  metabolites identified from treated cells: N-(6-aminohexyl)carbamoylfumagillol, fumagill-6-yl {6-[(aminoacetyl)amino]hexyl}carbamate, and the epoxide hydrolysis product, (3S,7aR)-7a-(hydroxymethyl)-4-methoxy-3-methyl-2-(3-methylbut-2-en-1-yl)octahydro-1-benzofuran-3-ol-5-yl 6-aminohexyl carbamate

## CO[C@@H]1[C@H](OC(N)=O)CC[C@]2(CO2)[C@H]1[C@@]1(C)O[C@@H]1CC=C(C)C [Compound O-7127-1, Carbamoylfumagillol]
[2]
  A549/HUVEC IC50 ratio: 33.63
[3]; pH 4.0 sodium acetate buffer
  Natural Rate Constant: 0.0054 h⁻¹
[3]; pH 5.3 sodium acetate buffer
  Natural Rate Constant: 0.0017 h⁻¹
[3]; pH 5.3 to 8.0, 37° C., seven days
  decomposition over the seven day period: less than 20%
[3]; pH 6.7 potassium phosphate buffer
  Natural Rate Constant: 0.0010 h⁻¹
[3]; pH 8.0 potassium phosphate buffer
  Natural Rate Constant: 0.0011 h⁻¹

## CO[C@@H]1[C@H](OC(=O)N[C@@H](C(N)=O)C(C)C)CC[C@]2(CO2)[C@H]1[C@@]1(C)O[C@@H]1CC=C(C)C [Compound O-7177, PPI-2458]
A549 cells [4]
  IC50: 0.215 ng/mL (≈ 0.506 nM)
HUVEC cells
  IC50: 0.101 ng/mL (≈ 0.238 nM)
HCT-116 cells
  IC50: 0.236 ng/mL (≈ 0.556 nM)

## CO[C@@H]1[C@H](OC(=O)NC2CCC(N)CC2)CC[C@]2(CO2)[C@H]1[C@@]1(C)O[C@@H]1CC=C(C)C (stereo partly drawn) [SDX-7539]
[5]
  Cmax: ~15 µM
  half-life of SDX-7539: 10 to 15 min

Reference: patent publication US20110294952A1, “Optimized Drug Conjugates” (SynDevRX, priority 2010, published 2011)
